For 34 molecules, IC50 results are on record in patent publication US9233979B2, “Compounds that are ERK inhibitors” (Merck Sharp & Dohme Corp., priority 2012, dated 2016).

Sequence of phosphorylated active hERK2 enzyme (P28482 whole entry): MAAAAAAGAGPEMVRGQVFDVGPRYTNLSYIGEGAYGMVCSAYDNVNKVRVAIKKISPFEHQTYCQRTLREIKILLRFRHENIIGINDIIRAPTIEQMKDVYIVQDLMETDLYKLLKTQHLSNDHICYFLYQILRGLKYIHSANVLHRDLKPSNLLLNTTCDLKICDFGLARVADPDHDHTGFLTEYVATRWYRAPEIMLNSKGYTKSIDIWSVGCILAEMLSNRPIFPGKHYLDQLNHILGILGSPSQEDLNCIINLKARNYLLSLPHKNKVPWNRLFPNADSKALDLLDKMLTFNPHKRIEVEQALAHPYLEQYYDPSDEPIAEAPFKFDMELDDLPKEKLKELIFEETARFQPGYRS

One assay concerns the target phosphorylated active hERK2 enzyme (Homo sapiens (Human), UniProt P28482). Briefly: Active Human ERK2 (hERK2) Activity Assay (IMAP-FP). As to conditions: Table 5, 0.5 nM hERK2, 30 μM ATP, 10 point titration, read-out: AERK2 IC50. It counts as biochemical. As to the method: Assays Active Human ERK2 (hERK2) Activity Assay:
Activated ERK2 activity was determined in an IMAP-FP assay (Molecular Devices). […] The final reaction in each well of 25 μL consists of 0.5 nM hERK2, 900 nM unlabeled peptide, 80 nM labeled-peptide, and 30 μM ATP. Phosphorylation reactions were allowed to proceed for 60 minutes and were immediately quenched by the addition of 60 μL IMAP detection beads (1:1000 dilutions) in IMAP binding buffer (Molecular Devices) with 24 mM NaCl. Plates were read on EnVision reader after 60 minutes binding equilibration using Fluorescence Polarization protocol (Perkin Elmer).
Take `CC(=O)Nc1n[nH]c2cc(NC(=O)N[C@H](C)c3ccccc3)ncc12` [Example 47, (R)—N-(6-(3-(1-Phenylethyl)ureido)-1H-pyrazolo[4,3-c]pyridin-3-yl)acetamide]: the IC50 stood at 0.66 nM.

`COCCNC(=O)Nc1cc2[nH]nc(N3CCCC3)c2cn1` [Example 9, 1-(2-methoxyethyl)-3-(3-pyrrolidin-1-yl-1H-pyrazolo[4,3-c]pyridin-6-yl)urea]: the IC50 came to 105 nM.

Consider `C[C@@H](NC(=O)Nc1ncc2c(N)n[nH]c2c1F)c1ccccc1` [Example 59, (R)-1-(3-Amino-7-fluoro-1H-pyrazolo[4,3-c]pyridin-6-yl)-3-(1-phenylethyl)urea], for which the IC50 amounted to 6.47 nM.

Consider `CCN(CC)c1n[nH]c2cc(NC(=O)N[C@H](COC)c3ccccc3)ncc12` [Example 21, 1-[3-(diethylamino)-1H-pyrazolo[4,3-c]pyridin-6-yl]-3-[(1S)-2-methoxy-1-phenylethyl]urea], for which the IC50 was 10.4 nM.

With `C[C@@H](NC(=O)Nc1cc2[nH]nc(NS(=O)(=O)C3CC3)c2cn1)c1ccccc1` [Example 52, N-[6-({[(1R)-1-phenylethyl]carbamoyl}amino)-1H-pyrazolo[4,3-c]pyridin-3-yl]cyclopropanesulfonamide], the IC50 worked out at 914 nM.

For the molecule `COCCNC(=O)Nc1cc2[nH]nc(N3CC(OC)C3)c2cn1` [Example 7, 1-[3-(3-methoxyazetidin-1-yl)-1H-pyrazolo[4,3-c]pyridin-6-yl]-3-(2-methoxyethyl)urea], the IC50 is 342 nM.

The assay is the same for the next values; noted with them: Table 6, 0.5 nM hERK2, 30 μM ATP, 10 point titration, read-out: AERK2 IC50.
Turning to `CCNc1n[nH]c2cc(NC(=O)NC3COc4ccccc4C3)ncc12` (stereo not shown) [Example 233, 1-(3,4-dihydro-2H-chromen-3-yl)-3-[3-(ethylamino)-1H-pyrazolo[4,3-c]pyridin-6-yl]urea], the half-inhibitory concentration (IC50) was found to be 28 nM.

As to `C[C@@H](NC(=O)Nc1cc2[nH]nc(N3CCCC3=O)c2cn1)c1ccccc1` [Example 408, 1-[3-(2-oxopyrrolidin-1-yl)-1H-pyrazolo[4,3-c]-pyridin-6-yl]-3-[(1R)-1-phenylethyl]urea], the IC50 was 101 nM.

As to `CCNc1n[nH]c2cc(NC(=O)NCc3cccnc3OCC)ncc12` [Example 238, 1-[(2-ethoxy-pyridin-3-yl)-methyl]-3-[3-(ethylamino)-1H-pyrazolo[4,3-c]pyridin-6-yl]urea], the IC50 was 9.6 nM.

`Cc1cccc(Cl)c1CNC(=O)Nc1cc2[nH]nc(N)c2cn1` [Example 266, 1-(3-amino-1H-pyrazolo[4,3-c]pyridin-6-yl)-3-(2-chloro-6-methylbenzyl)urea]: the IC50 is 13.8 nM.

Turning to `COC(=O)Nc1n[nH]c2cc(NC(=O)NCc3c(F)cccc3OC)ncc12` [Example 298, methyl (6-{[(2-fluoro-6-methoxy-benzyl)carbamoyl]-amino}-1H-pyrazolo[4,3-c]-pyridin-3-yl)-carbamate], the IC50 was 1.2 nM.

Regarding `COc1cccc(F)c1CNC(=O)Nc1cc2[nH]nc(N)c2cn1` [Example 269, 1-(3-amino-1H-pyrazolo[4,3-c]pyridin-6-yl)-3-(2-fluoro-6-methoxy-benzyl)urea], the IC50 is 3.3 nM.

For the molecule `COCC(C)(C)Nc1n[nH]c2cc(NC(=O)N[C@H](C)c3ccccc3)ncc12` [Example 361, 1-{3-[(2-methoxy-1,1-dimethylethyl)-amino]-1H-pyrazolo[4,3-c]-pyridin-6-yl}-3-[(1R)-1-phenylethyl]urea], the IC50 turned out to be 385 nM.

Consider `C[C@@H](NC(=O)Nc1cc2[nH]nc(NCCC(=O)N(C)C)c2cn1)c1ccccc1` [Example 348, N,N-dimethyl-N~3~-[6-({[(1R)-1-phenylethyl]-carbamoyl}amino)-1H-pyrazolo[4,3-c]pyridin-3-yl]-beta-alaninamide], for which the IC50 was 3.1 nM.

Take `COC(=O)Nc1n[nH]c2cc(NC(=O)N[C@H](C)C3CCCCC3)ncc12` [Example 292, methyl [6-({[(1R)-1-cyclohexylethyl]-carbamoyl}amino)-1H-pyrazolo[4,3-c]pyridin-3-yl]-carbamate]: the IC50 stood at 19.7 nM.

Regarding `CCNc1n[nH]c2cc(NC(=O)N[C@H](COC)c3ccccc3)nc(C)c12` [Example 334, 1-[3-(ethylamino)-4-methyl-1H-pyrazolo[4,3-c]-pyridin-6-yl]-3-[(1S)-2-methoxy-1-phenylethyl]urea], the IC50 came to 2.9 nM.

As to `COC[C@@H](NC(=O)Nc1cc2[nH]nc(NCC(F)(F)F)c2cn1)c1ccccc1` [Example 342, 1-[(1S)-2-methoxy-1-phenylethyl]-3-{3-[(2,2,2-trifluoro-ethyl)amino]-1H-pyrazolo[4,3-c]-pyridin-6-yl}urea], the IC50 was found to be 0.9 nM.

On to `CCN(C(C)=O)c1n[nH]c2cc(NC(=O)N[C@H](C)c3ccccc3)ncc12` [Example 350, N-ethyl-N-[6-({[(1R)-1-phenyl-ethyl]carbamoyl}-amino)-1H-pyrazolo[4,3-c]-pyridin-3-yl]-acetamide], for which the IC50 turned out to be 33.3 nM.

As for `COC(=O)Nc1n[nH]c2cc(NC(=O)N[C@@H](c3ccccc3)C(C)(C)O)ncc12` [Example 389, methyl [6-({[(1S)-2-hydroxy-2-methyl-1-phenyl-propyl]carbamoyl}amino)-1H-pyrazolo[4,3-c]-pyridin-3-yl]-carbamate], the IC50 was determined as 0.4 nM.

For `COC[C@@H](NC(=O)Nc1cc2[nH]nc(N3CC4CC3CO4)c2cn1)c1ccccc1` (stereo partly drawn) [Example 451, 1-[(1S)-2-methoxy-1-phenylethyl]-3-[3-(2-oxa-5-azabicyclo[2.2.1]-hept-5-yl)-1H-pyrazolo[4,3-c]-pyridin-6-yl]urea], the IC50 stood at 3 nM.

On to `C[C@@H](NC(=O)Nc1cc2[nH]nc(N)c2c(Cl)n1)c1ccccc1` [Example 444, 1-(3-amino-4-chloro-1H-pyrazolo[4,3-c]-pyridin-6-yl)-3-[(1R)-1-phenylethyl]urea], for which the IC50 was found to be 1.2 nM.

As for `C[C@@H](NC(=O)Nc1cc2[nH]nc(NCC3CCCCO3)c2cn1)c1ccccc1` (stereo partly drawn) [Example 196, 1-[(1R)-1-phenylethyl]-3-{3-[(tetrahydro-2H-pyran-2-yl-methyl)amino]-1H-pyrazolo[4,3-c]-pyridin-6-yl}urea], the IC50 is 27.9 nM.

With `COC[C@@H](NC(=O)Nc1cc2[nH]nc(N3CC4CCC(C3)O4)c2cn1)c1ccccc1` [Example 441, 1-[(1S)-2-methoxy-1-phenylethyl]-3-[3-(8-oxa-3-azabicyclo[3.2.1]-oct-3-yl)-1H-pyrazolo[4,3-c]-pyridin-6-yl]urea], the IC50 amounted to 0.9 nM.

As for `COC(=O)Nc1n[nH]c2cc(NC(=O)N[C@H](C)c3ccccc3)nc(C)c12` [Example 338, methyl [4-methyl-6-({[(1R)-1-phenyl-ethyl]carbamoyl}-amino)-1H-pyrazolo[4,3-c]-pyridin-3-yl]-carbamate], the IC50 turned out to be 16.1 nM.

Turning to `O=C(Nc1cc2[nH]nc(N3CC4CCC(C3)O4)c2cn1)N[C@H](CO)c1ccccc1` [Example 439, 1-[(1S)-2-hydroxy-1-phenylethyl]-3-[3-(8-oxa-3-azabicyclo[3.2.1]-oct-3-yl)-1H-pyrazolo[4,3-c]-pyridin-6-yl]urea], the IC50 is 1.9 nM.

With `CSC[C@@H](NC(=O)Nc1cc2[nH]nc(N)c2cn1)c1ccccc1` [Example 357, 1-(3-amino-1H-pyrazolo[4,3-c]-pyridin-6-yl)-3-[(1S)-2-(methylsulfanyl)-1-phenylethyl]urea], the 50% inhibitory concentration (IC50) amounted to 1.4 nM.

Turning to `COC[C@@H](NC(=O)Nc1cc2[nH]nc(NC3COC3)c2cn1)c1ccccc1` [Example 198, 1-[(1S)-2-methoxy-1-phenylethyl]-3-[3-(oxetan-3-yl-amino)-1H-pyrazolo[4,3-c]-pyridin-6-yl]urea], the IC50 was 0.5 nM.

For `O=C(Nc1cc2[nH]nc(N3CCOCC3)c2cn1)N[C@H](COC(F)F)c1ccccc1` [Example 440, 1-[(1S)-2-(difluoromethoxy)-1-phenylethyl]-3-(3-morpholin-4-yl-1H-pyrazolo[4,3-c]pyridin-6-yl)urea], the IC50 came to 0.4 nM.

`C[C@H]1Cc2nc(NC(=O)N[C@H](C)c3ccccc3)cc3[nH]nc(c23)N1` [Example 139, 1-((S)-4-methyl-1,3,4,5-tetrahydropyrazolo[3,4,5-de][1,6]naphthyridin-7-yl)-3-((R)-1-phenylethyl)urea]: the IC50 worked out at 5.5 nM.

Consider `CSC1CCN(c2n[nH]c3cc(NC(=O)N[C@H](C)c4ccccc4)ncc23)CC1` [Example 427, 1-{3-[4-(methylsulfanyl)-piperidin-1-yl]-1H-pyrazolo[4,3-c]-pyridin-6-yl}-3-[(1R)-1-phenylethyl]urea], for which the IC50 came to 15.1 nM.

In the case of `CCNc1n[nH]c2cc(NC(=O)N[C@H](C)c3ccccc3)nc(Cl)c12` [Example 454, 1-[4-chloro-3-(ethylamino)-1H-pyrazolo[4,3-c]pyridin-6-yl]-3-[(1R)-1-phenylethyl]urea], the IC50 was 11.8 nM.

Regarding `Nc1n[nH]c2cc(NC(=O)N[C@H](COC(F)F)c3ccccc3)ncc12` [Example 352, 1-(3-amino-1H-pyrazolo[4,3-c]-pyridin-6-yl)-3-[(1S)-2-(difluoromethoxy)-1-phenylethyl]urea], the concentration for half-maximal inhibition (IC50) came out at 1.2 nM.

For `CC[C@H](NC(=O)Nc1cc2[nH]nc(N3CCCC3)c2cn1)c1ccccn1` [Example 345, 1-[(1S)-1-pyridin-2-ylpropyl]-3-(3-pyrrolidin-1-yl-1H-pyrazolo[4,3-c]-pyridin-6-yl)urea], the IC50 came to 13.8 nM.

Turning to `CCNc1n[nH]c2cc(NC(=O)NC(C(=O)N(CC)CC)c3ccc(F)cc3)ncc12` (stereo not shown) [Example 412, N,N-diethyl-2-({[3-(ethylamino)-1H-pyrazolo[4,3-c]-pyridin-6-yl]-carbamoyl}amino)-2-(4-fluoro-phenyl)acetamide], the IC50 was 421 nM.

Usually IC50 stands for the midpoint of a concentration-inhibition curve.
